Source: PMC8605562, “MSMEG_3955 from Mycobacterium smegmatis is a FMN bounded homotrimeric NAD(P)H:Flavin mononucleotide (FMN) oxidoreductase” (BMC Microbiology, 2021)

Experiments:
MSMEG_3955 = molecular target: T1, MSMEG_3955 (Mycolicibacterium smegmatis, UniProt A0QZA6); experiment: NADPH oxidation at […] nm; assay type: biochemical; conditions: 200 uM NADPH, 50 uM FMN, 1.6 uM enzyme, 50 mM Tris-HCl pH 7.6, 25 °C, aerobic
T1 construct: ~36 kDa subunit, homotrimer ~115 kDa; co-purifies with FMN
T1 sequence (A0QZA6 entry or part of it): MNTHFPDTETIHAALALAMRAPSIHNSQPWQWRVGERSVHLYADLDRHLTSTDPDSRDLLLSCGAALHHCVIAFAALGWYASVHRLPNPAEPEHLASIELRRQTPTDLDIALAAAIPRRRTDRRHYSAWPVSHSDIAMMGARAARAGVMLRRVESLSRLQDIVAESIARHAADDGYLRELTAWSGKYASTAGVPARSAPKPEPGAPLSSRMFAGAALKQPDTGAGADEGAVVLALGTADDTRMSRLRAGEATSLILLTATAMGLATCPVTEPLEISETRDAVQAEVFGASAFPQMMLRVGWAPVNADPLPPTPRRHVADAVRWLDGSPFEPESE

[1] = molecular target: the molecule itself; experiment: native gel or EMSA; NATIVE-PAGE (12% in the methods, 10% in the legend of Fig. 3a) of purified protein loaded without any treatment, 10 ug (Fig. 3a) or 20 ug each of wild type and mutant (Fig. 2a); band at ~115 kDa against ~36 kDa on SDS-PAGE

## NC(=O)C1=CN([C@@H]2O[C@H](COP(=O)(O)OP(=O)(O)OC[C@H]3O[C@@H](n4cnc5c(N)ncnc54)[C@H](OP(=O)(O)O)[C@@H]3O)[C@@H](O)[C@H]2O)C=CC1 [NADPH]
MSMEG_3955
  NADPH oxidation at 340 nm: showed oxidative NADPH dependent FMN reductase activity as oxidation of NADPH was seen

B1: MSMEG_3955 with cysteine 63 replaced by alanine (enzyme, Mycobacterium smegmatis mc2 155, UniProt A0QZA6 1-334, looked up)
chain: MNTHFPDTETIHAALALAMRAPSIHNSQPWQWRVGERSVHLYADLDRHLTSTDPDSRDLLLSAGAALHHCVIAFAALGWYASVHRLPNPAEPEHLASIELRRQTPTDLDIALAAAIPRRRTDRRHYSAWPVSHSDIAMMGARAARAGVMLRRVESLSRLQDIVAESIARHAADDGYLRELTAWSGKYASTAGVPARSAPKPEPGAPLSSRMFAGAALKQPDTGAGADEGAVVLALGTADDTRMSRLRAGEATSLILLTATAMGLATCPVTEPLEISETRDAVQAEVFGASAFPQMMLRVGWAPVNADPLPPTPRRHVADAVRWLDGSPFEPESE
notes: MSMEG_3955, Mycobacterium smegmatis mc2 155, made by site-directed mutagenesis on the pET-28a plasmid of the wild-type gene; cysteine (TGC) at position 63 replaced with alanine (GCC); Same construct as m1 apart from C63A; also called cys-63 mutated native protein MSMEG_3955; mutated protein; source: E. coli BL21 (DE3), pET-28a, purified (Ni-NTA)
[1]
  binding result: binds
